According to US6417175B1, “Phosphonocephem derivatives, process for the preparation of the same, and use thereof” (Takeda Chemical Industries, Ltd., priority 1997, dated 2002):

Experiment: Transformation into the amino form after incubation in mouse plasma at 37° C. (Experiment 1)
Format: in vitro ADME
Conditions: 10 mg equivalent/ml
Method: The lyophilized 7β-[2(Z)-ethoxyimino-2-(5-phosphonoamino-1,2,4-thiadiazol-3-yl)acetamido]-3-[4-(1-methyl-4-pyridinio)-2-thiazolylthio]-3-cephem-4-carboxylate obtained in Working Example 6, was dissolved in mouse plasma to prepare 10 mg equivalent/ml solution. After incubation at 37° C., the transformation rate into 7β-[2(Z)-ethoxyimino-2-(5-amino-1,2,4-thiadiazol-3-yl)acetamido]-3-[4-(1-methyl-4-pyridinio)-2-thiazolylthio]-3-cephem-4-carboxylate (amino form) was measured. The transformation rates in 30 minutes and 1 hour were as follows: […]

## CCO/N=C(\C(=O)N[C@@H]1C(=O)N2C(C(=O)[O-])=C(Sc3nc(-c4cc[n+](C)cc4)cs3)CS[C@H]12)c1nsc(NP(=O)(O)O)n1 [Working Example 6, 7β-[2(Z)-Ethoxyimino-2-(5-phosphonoamino-1,2,4-thiadiazol-3-yl)acetamido]-3-[4-(1-methyl-4-pyridinio)-2-thiazolylthio]-3-cephem-4-carboxylate]
30 minutes
  transformation rate into amino form: 35%
1 hour
  transformation rate into amino form: 62%
